# Tested on: HCV 1b-377-neo replicon cells
# Assay: HCV Replicon assay, HCV 1b-377-neo replicon cells
# Assay type: cell-based, HCV 1b genotype
# Details: Hepatitis C virus, Table 2, read-out: Range (EC50 against HCV 1b)
# Protocol: An HCV Replicon assay was utilized in the present disclosure, and was prepared, conducted and validated as described in commonly owned PCT/US2006/022197 and in O'Boyle et. al. Antimicrob Agents Chemother. 2005 April; 49(4):1346-53.
# HCV 1b-377-neo replicon cells were used to test the currently described compound series as well as cells resistant to compound A due to a Y2065H mutation in NS5A (described in application PCT/US2006/022197). The compounds tested were determined to have more than 10-fold less inhibitory activity on cells resistant to compound A than wild-type cells indicating a related mechanism of action between the two compound series. Thus, the compounds of the present disclosure can be effective to inhibit the function of the HCV NS5A protein and are understood to be as effective in combinations as previously described in application PCT/US2006/022197 and commonly owned WO/O4014852. Further, the compounds of the present disclosure can be effective against the HCV 1b genotype. It should also be understood that the compounds of the present disclosure can inhibit multiple genotypes of HCV. […] In one embodiment compounds of the present disclosure are active against the 1a, 1b, 2a, 2b, 3a, 4a, and 5a genotypes.
row,SMILES,EC50 [nM]
1,"COC(=O)N[C@@H](C(=O)N1CCC[C@H]1c1ncc(-c2ccc(-c3ccc(-c4cnc([C@@H]5CCCN5C(=O)[C@H](NC(=O)OC)c5ccccc5)[nH]4)cn3)cc2)[nH]1)c1ccccc1 [Example 134, methyl ((1R)-2-((2S)-2-(5-(6-(4-(2-((2S)-1-((2R)-2-((methoxycarbonyl)amino)-2-phenylacetyl)-2-pyrrolidinyl)-1H-imidazol-5-yl)phenyl)-3-pyridinyl)-1H-imidazol-2-yl)-1-pyrrolidinyl)-2-oxo-1-phenylethyl)carbamate]",0.001 to 0.999
2,"CO[C@@H](C(=O)N1CCC[C@H]1c1ncc(-c2ccc(-c3ccc(-c4cnc([C@@H]5CCCN5C(=O)[C@H](OC)c5ccccc5)[nH]4)cn3)cc2)[nH]1)c1ccccc1 [Example 135, 5-(2-((2S)-1-((2R)-2-methoxy-2-phenylacetyl)-2-pyrrolidinyl)-1H-imidazol-5-yl)-2-(4-(2-((2S)-1-((2R)-2-methoxy-2-phenylacetyl)-2-pyrrolidinyl)-1H-imidazol-5-yl)phenyl)pyridine]",0.001 to 0.999
3,"Cc1cc(-c2cnc([C@@H]3CCCN3C(=O)[C@@H](c3ccccc3)N(C)C)[nH]2)ccc1-c1ccc(-c2cnc([C@@H]3CCCN3C(=O)[C@@H](c3ccccc3)N(C)C)[nH]2)cn1 [Example 136, (1R)-2-((2S)-2-(5-(6-(4-(2-((2S)-1-((2R)-2-(dimethylamino)-2-phenylacetyl)-2-pyrrolidinyl)-1H-imidazol-5-yl)-2-methylphenyl)-3-pyridinyl)-1H-imidazol-2-yl)-1-pyrrolidinyl)-N,N-dimethyl-2-oxo-1-phenylethanamine]",0.001 to 0.999
4,"COC(=O)N[C@@H](C(=O)N1CCC[C@H]1c1ncc(-c2ccc(-c3ccc(-c4cnc([C@@H]5CCCN5C(=O)[C@H](NC(=O)OC)c5ccccc5)[nH]4)cc3C)nc2)[nH]1)c1ccccc1 [Example 138, methyl((1R)-2-((2S)-2-(5-(6-(4-(2-((2S)-1-((2R)-2-((methoxycarbonyl)amino)-2-phenylacetyl)-2-pyrrolidinyl)-1H-imidazol-5-yl)-2-methylphenyl)-3-pyridinyl)-1H-imidazol-2-yl)-1-pyrrolidinyl)-2-oxo-1-phenylethyl)carbamate]",0.001 to 0.999
5,"CC(=O)N[C@@H](C(=O)N1CCC[C@H]1c1ncc(-c2ccc(-c3ccc(-c4cnc([C@@H]5CCCN5C(=O)[C@H](NC(C)=O)c5ccccc5)[nH]4)cn3)cc2)[nH]1)c1ccccc1 [Example 139, N-((1R)-2-((2S)-2-(5-(6-(4-(2-((2S)-1-((2R)-2-acetamido-2-phenylacetyl)-2-pyrrolidinyl)-1H-imidazol-5-yl)phenyl)-3-pyridinyl)-1H-imidazol-2-yl)-1-pyrrolidinyl)-2-oxo-1-phenylethyl)acetamide]",0.001 to 0.999
6,"COC(=O)N[C@@H](C(=O)N1CCC[C@H]1c1ncc(-c2ccc(-c3ccc(-c4cnc([C@@H]5CCCN5C(=O)[C@@H](c5ccccc5)N(C)C)[nH]4)cn3)cc2)[nH]1)c1ccccc1 [Example 140, methyl((1R)-2-((2S)-2-(5-(4-(5-(2-((2S)-1-((2R)-2-(dimethylamino)-2-phenylacetyl)-2-pyrrolidinyl)-1H-imidazol-5-yl)-2-pyridinyl)phenyl)-1H-imidazol-2-yl)-1-pyrrolidinyl)-2-oxo-1-phenylethyl)carbamate]",0.001 to 0.999
7,"COC(=O)N[C@@H](C(=O)N1CCC[C@H]1c1ncc(-c2ccc(-c3ccc(-c4cnc([C@@H]5CCCN5C(=O)[C@H]5CCCO5)[nH]4)cn3)cc2)[nH]1)c1ccccc1 [Example 141, methyl ((1R)-2-oxo-1-phenyl-2-((2S)-2-(5-(4-(5-(2-((2S)-1-((2R)-tetrahydro-2-furanylcarbonyl)-2-pyrrolidinyl)-1H-imidazol-5-yl)-2-pyridinyl)phenyl)-1H-imidazol-2-yl)-1-pyrrolidinyl)ethyl)carbamate]",0.001 to 0.999
8,"COC(=O)N[C@@H](C(=O)N1CCC[C@H]1c1ncc(-c2ccc(-c3ccc(-c4cnc([C@@H]5CCCN5C(=O)C5CCN(C)CC5)[nH]4)cn3)cc2)[nH]1)c1ccccc1 [Example 142, methyl ((1R)-2-((2S)-2-(5-(4-(5-(2-((2S)-1-((1-methyl-4-piperidinyl)carbonyl)-2-pyrrolidinyl)-1H-imidazol-5-yl)-2-pyridinyl)phenyl)-1H-imidazol-2-yl)-1-pyrrolidinyl)-2-oxo-1-phenylethyl)carbamate]",1 to 99
9,"COC(=O)N[C@@H](C(=O)N1CCC[C@H]1c1ncc(-c2ccc(-c3ccc(-c4cnc([C@@H]5CCCN5C(=O)Cc5cccnc5)[nH]4)cn3)cc2)[nH]1)c1ccccc1 [Example 143, methyl ((1R)-2-oxo-1-phenyl-2-((2S)-2-(5-(4-(5-(2-((2S)-1-(3-pyridinylacetyl)-2-pyrrolidinyl)-1H-imidazol-5-yl)-2-pyridinyl)phenyl)-1H-imidazol-2-yl)-1-pyrrolidinyl)ethyl)carbamate]",0.001 to 0.999
10,"COC(=O)N[C@@H](C(=O)N1CCC[C@H]1c1ncc(-c2ccc(-c3ccc(-c4cnc([C@@H]5CCCN5C(=O)N5CCOCC5)[nH]4)cn3)cc2)[nH]1)c1ccccc1 [Example 144, methyl((1R)-2-((2S)-2-(5-(4-(5-(2-((2S)-1-(4-morpholinylcarbonyl)-2-pyrrolidinyl)-1H-imidazol-5-yl)-2-pyridinyl)phenyl)-1H-imidazol-2-yl)-1-pyrrolidinyl)-2-oxo-1-phenylethyl)carbamate]",0.001 to 0.999
11,"COC(=O)N[C@@H](C(=O)N1CCC[C@H]1c1ncc(-c2ccc(-c3ccc(-c4cnc([C@@H]5CCCN5C(=O)[C@H](NC(=O)OC)c5ccccc5)[nH]4)cn3)nc2)[nH]1)c1ccccc1 [Example 145, dimethyl(2,2′-bipyridine-5,5′-diylbis(1H-imidazole-5,2-diyl(2S)-2,1-pyrrolidinediyl((1R)-2-oxo-1-phenyl-2,1-ethanediyl)))biscarbamate]",0.001 to 0.999
12,"CN(C)[C@@H](C(=O)N1CCC[C@H]1c1ncc(-c2ccc(-c3ccc(-c4cnc([C@@H]5CCCN5C(=O)[C@@H](c5ccccc5)N(C)C)[nH]4)nc3)cc2)[nH]1)c1ccccc1 [Example 146, (1R)-2-((2S)-2-(5-(5-(4-(2-((2S)-1-((2R)-2-(dimethylamino)-2-phenylacetyl)-2-pyrrolidinyl)-1H-imidazol-5-yl)phenyl)-2-pyridinyl)-1H-imidazol-2-yl)-1-pyrrolidinyl)-N,N-dimethyl-2-oxo-1-phenylethanamine]",0.001 to 0.999
13,"COC(=O)N[C@@H](C(=O)N1CCC[C@H]1c1ncc(-c2ccc(-c3ccc(-c4cnc([C@@H]5CCCN5C(=O)[C@H](NC(=O)OC)c5ccccc5)[nH]4)nc3)cc2)[nH]1)c1ccccc1 [Example 147, methyl((1R)-2-((2S)-2-(5-(5-(4-(2-((2S)-1-((2R)-2-((methoxycarbonyl)amino)-2-phenylacetyl)-2-pyrrolidinyl)-1H-imidazol-5-yl)phenyl)-2-pyridinyl)-1H-imidazol-2-yl)-1-pyrrolidinyl)-2-oxo-1-phenylethyl)carbamate]",0.001 to 0.999
14,"CN(C)[C@@H](C(=O)N1CSC[C@H]1c1ncc(-c2ccc(-c3ccc(-c4cnc([C@@H]5CSCN5C(=O)[C@@H](c5ccccc5)N(C)C)[nH]4)cc3)cc2)[nH]1)c1ccccc1 [Example 148, (1R,1′R)-2,2′-(4,4′-biphenyldiylbis(1H-imidazole-5,2-diyl(4R)-1,3-thiazolidine-4,3-diyl))bis(N,N-dimethyl-2-oxo-1-phenylethanamine)]",1 to 99
15,"CN(C)[C@@H](C(=O)N1CCC[C@H]1c1ncc(-c2ccc(-c3ncc(-c4cnc([C@@H]5CCCN5C(=O)[C@@H](c5ccccc5)N(C)C)[nH]4)cn3)cc2)[nH]1)c1ccccc1 [Example 152j-1, (1R)-2-((2S)-2-(5-(2-(4-(2-((2S)-1-((2R)-2-(dimethylamino)-2-phenylacetyl)-2-pyrrolidinyl)-1H-imidazol-5-yl)phenyl)-5-pyrimidinyl)-1H-imidazol-2-yl)-1-pyrrolidinyl)-N,N-dimethyl-2-oxo-1-phenylethanamine]",1 to 99
16,"COC(=O)N[C@@H](C(=O)N1CCC[C@H]1c1ncc(-c2ccc(-c3ncc(-c4cnc([C@@H]5CCCN5C(=O)[C@H](NC(=O)OC)c5ccccc5)[nH]4)cn3)cc2)[nH]1)c1ccccc1 [Example 152j-2, methyl ((1R)-2-((2S)-2-(5-(2-(4-(2-((2S)-1-((2R)-2-((methoxycarbonyl)amino)-2-phenylacetyl)-2-pyrrolidinyl)-1H-imidazol-5-yl)phenyl)-5-pyrimidinyl)-1H-imidazol-2-yl)-1-pyrrolidinyl)-2-oxo-1-phenylethyl)carbamate]",0.001 to 0.999
17,"COC(=O)N[C@@H](C(=O)N1CCC[C@H]1c1ncc(-c2ccc(-c3ncc(-c4cnc([C@@H]5CCCN5C(=O)Cc5cccnc5)[nH]4)cn3)cc2)[nH]1)c1ccccc1 [Example 152j-3, methyl ((1R)-2-oxo-1-phenyl-2-((2S)-2-(5-(4-(5-(2-((2S)-1-(3-pyridinylacetyl)-2-pyrrolidinyl)-1H-imidazol-5-yl)-2-pyrimidinyl)phenyl)-1H-imidazol-2-yl)-1-pyrrolidinyl)ethyl)car bamate]",0.001 to 0.999
18,"O=C([C@@H](c1ccccc1)N1CCCCC1)N1CCC[C@H]1c1ncc(-c2ccc(-c3ncc(-c4cnc([C@@H]5CCCN5C(=O)[C@@H](c5ccccc5)N5CCCCC5)[nH]4)cn3)cc2)[nH]1 [Example 152j-5, 5-(2-((2S)-1-((2R)-2-phenyl-2-(1-piperidinyl)acetyl)-2-pyrrolidinyl)-1H-imidazol-5-yl)-2-(4-(2-((2S)-1-((2R)-2-phenyl-2-(1-piperidinyl)acetyl)-2-pyrrolidinyl)-1H-imidazol-4-yl)phenyl)pyrimidine]",0.001 to 0.999
